From PubChem BioAssay (NCI)
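Grown in 96-well plates, cells were treated for 48 hours with each compound at five concentrations. Insufficient inhibition: endpoint recorded as highest concentration tested. At the TGI there is no net growth.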

Key:
Experiment in all cases: NCI tumour cell line growth inhibition, 48 h
RPMI-8226 leukemia = tested on: RPMI-8226 leukemia
RXF 393 renal = tested on: RXF 393 renal
K-562 leukemia = tested on: K-562 leukemia
SNB-19 CNS = tested on: SNB-19 CNS
CCRF-CEM leukemia = tested on: CCRF-CEM leukemia
IGROV1 ovarian = tested on: IGROV1 ovarian
MDA-MB-435 = tested on: MDA-MB-435
SK-MEL-28 melanoma = tested on: SK-MEL-28 melanoma
SR leukemia = tested on: SR leukemia
U251 CNS = tested on: U251 CNS
SF-268 CNS = tested on: SF-268 CNS
HCC-2998 colon = tested on: HCC-2998 colon
SF-295 CNS = tested on: SF-295 CNS
ACHN renal = tested on: ACHN renal
TK-10 renal = tested on: TK-10 renal
SF-539 CNS = tested on: SF-539 CNS
OVCAR-5 ovarian = tested on: OVCAR-5 ovarian
HOP-92 NSCLC = tested on: HOP-92 NSCLC
HS 578T breast = tested on: HS 578T breast
MDA-MB-231 breast = tested on: MDA-MB-231 breast
SNB-75 CNS = tested on: SNB-75 CNS
CAKI-1 renal = tested on: CAKI-1 renal
SK-MEL-5 melanoma = tested on: SK-MEL-5 melanoma
DU-145 prostate = tested on: DU-145 prostate
HCT-15 colon = tested on: HCT-15 colon
SK-OV-3 ovarian = tested on: SK-OV-3 ovarian
T-47D breast = tested on: T-47D breast
HOP-62 NSCLC = tested on: HOP-62 NSCLC
NCI/ADR-RES ovarian = tested on: NCI/ADR-RES ovarian
NCI-H522 lung = tested on: NCI-H522 lung
HCT-116 colon = tested on: HCT-116 colon
SN12C renal = tested on: SN12C renal
BT-549 breast = tested on: BT-549 breast
MALME-3M melanoma = tested on: MALME-3M melanoma
MCF7 breast = tested on: MCF7 breast
NCI-H23 lung = tested on: NCI-H23 lung
COLO 205 colon = tested on: COLO 205 colon
SK-MEL-2 melanoma = tested on: SK-MEL-2 melanoma
HL-60(TB) leukemia = tested on: HL-60(TB) leukemia
HT29 colon = tested on: HT29 colon
OVCAR-4 ovarian = tested on: OVCAR-4 ovarian
MDA-N = tested on: MDA-N
OVCAR-8 ovarian = tested on: OVCAR-8 ovarian
KM12 colon = tested on: KM12 colon
PC-3 prostate = tested on: PC-3 prostate
NCI-H226 lung = tested on: NCI-H226 lung
OVCAR-3 ovarian = tested on: OVCAR-3 ovarian
EKVX NSCLC = tested on: EKVX NSCLC
UACC-62 melanoma = tested on: UACC-62 melanoma
SW-620 colon = tested on: SW-620 colon
UO-31 renal = tested on: UO-31 renal
UACC-257 melanoma = tested on: UACC-257 melanoma
MOLT-4 leukemia = tested on: MOLT-4 leukemia
LOX IMVI melanoma = tested on: LOX IMVI melanoma
A549 NSCLC = tested on: A549 NSCLC
786-0 renal = tested on: 786-0 renal
M14 melanoma = tested on: M14 melanoma
A498 renal = tested on: A498 renal
NCI-H460 lung = tested on: NCI-H460 lung

## O=c1[nH]c2nc3ccccc3c(=O)n2/c1=C/c1cccs1
RPMI-8226 leukemia
  TGI: > 100 µM
RXF 393 renal
  TGI: > 100 µM
K-562 leukemia
  TGI: > 100 µM
SNB-19 CNS
  TGI: > 100 µM
CCRF-CEM leukemia
  TGI: > 100 µM
IGROV1 ovarian
  TGI: > 100 µM
MDA-MB-435
  TGI: > 100 µM
SK-MEL-28 melanoma
  TGI: > 100 µM
SR leukemia
  TGI: > 100 µM
U251 CNS
  TGI: > 100 µM
SF-268 CNS
  TGI: > 100 µM
HCC-2998 colon
  TGI: > 100 µM
SF-295 CNS
  TGI: > 100 µM
ACHN renal
  TGI: > 100 µM
TK-10 renal
  TGI: > 100 µM
SF-539 CNS
  TGI: > 100 µM
OVCAR-5 ovarian
  TGI: > 100 µM
HOP-92 NSCLC
  TGI: > 100 µM
HS 578T breast
  TGI: > 100 µM
MDA-MB-231 breast
  TGI: > 100 µM
SNB-75 CNS
  TGI: > 100 µM
CAKI-1 renal
  TGI: > 100 µM
SK-MEL-5 melanoma
  TGI: > 100 µM
DU-145 prostate
  TGI: > 100 µM
HCT-15 colon
  TGI: > 100 µM
SK-OV-3 ovarian
  TGI: > 100 µM
T-47D breast
  TGI: > 100 µM
HOP-62 NSCLC
  TGI: > 100 µM
NCI/ADR-RES ovarian
  TGI: > 100 µM
NCI-H522 lung
  TGI: > 100 µM
HCT-116 colon
  TGI: > 100 µM
SN12C renal
  TGI: > 100 µM
BT-549 breast
  TGI: > 100 µM
MALME-3M melanoma
  TGI: > 100 µM
MCF7 breast
  TGI: > 100 µM
NCI-H23 lung
  TGI: > 100 µM
COLO 205 colon
  TGI: > 100 µM
SK-MEL-2 melanoma
  TGI: > 100 µM
HL-60(TB) leukemia
  TGI: > 100 µM
HT29 colon
  TGI: > 100 µM
OVCAR-4 ovarian
  TGI: > 100 µM
MDA-N
  TGI: > 100 µM
OVCAR-8 ovarian
  TGI: > 100 µM
KM12 colon
  TGI: > 100 µM
PC-3 prostate
  TGI: > 100 µM
NCI-H226 lung
  TGI: > 100 µM
OVCAR-3 ovarian
  TGI: > 100 µM
EKVX NSCLC
  TGI: > 100 µM
UACC-62 melanoma
  TGI: > 100 µM
SW-620 colon
  TGI: > 100 µM
UO-31 renal
  TGI: > 100 µM
UACC-257 melanoma
  TGI: > 100 µM
MOLT-4 leukemia
  TGI: > 100 µM
LOX IMVI melanoma
  TGI: > 100 µM
A549 NSCLC
  TGI: > 100 µM
786-0 renal
  TGI: > 100 µM
M14 melanoma
  TGI: > 100 µM

## O=[N+]([O-])c1ccc(Sc2c3ccccc3nc3ccccc23)cn1
RXF 393 renal
  TGI: 60.3 µM
K-562 leukemia
  TGI: 6.66 µM
SNB-19 CNS
  TGI: > 66.6 µM
CCRF-CEM leukemia
  TGI: 8.3 µM
IGROV1 ovarian
  TGI: > 64.7 µM
MDA-MB-435
  TGI: 33.2 µM
A498 renal
  TGI: > 100 µM
SK-MEL-28 melanoma
  TGI: 58.4 µM
SR leukemia
  TGI: > 100 µM
U251 CNS
  TGI: > 60.1 µM
SF-268 CNS
  TGI: 52.4 µM
HCC-2998 colon
  TGI: > 81.7 µM
SF-295 CNS
  TGI: > 100 µM
ACHN renal
  TGI: 17.4 µM
TK-10 renal
  TGI: 28.6 µM
SF-539 CNS
  TGI: > 20.5 µM
OVCAR-5 ovarian
  TGI: > 100 µM
HOP-92 NSCLC
  TGI: 16.9 µM
HS 578T breast
  TGI: 29.7 µM
MDA-MB-231 breast
  TGI: 42.5 µM
SNB-75 CNS
  TGI: > 63.4 µM
CAKI-1 renal
  TGI: 11.7 µM
SK-MEL-5 melanoma
  TGI: > 100 µM
DU-145 prostate
  TGI: 26.5 µM
HCT-15 colon
  TGI: 28.8 µM
SK-OV-3 ovarian
  TGI: > 93 µM
T-47D breast
  TGI: 19.9 µM
HOP-62 NSCLC
  TGI: > 65.7 µM
NCI/ADR-RES ovarian
  TGI: > 100 µM
NCI-H522 lung
  TGI: 10.8 µM
HCT-116 colon
  TGI: 11.9 µM
SN12C renal
  TGI: 43.2 µM
BT-549 breast
  TGI: 28.8 µM
MALME-3M melanoma
  TGI: 19.9 µM
MCF7 breast
  TGI: 19.1 µM
NCI-H23 lung
  TGI: > 47.8 µM
COLO 205 colon
  TGI: 10.4 µM
SK-MEL-2 melanoma
  TGI: 48.1 µM
HL-60(TB) leukemia
  TGI: > 61.7 µM
HT29 colon
  TGI: 28 µM
OVCAR-4 ovarian
  TGI: 75.9 µM
MDA-N
  TGI: 31.8 µM
OVCAR-8 ovarian
  TGI: 52.5 µM
KM12 colon
  TGI: 95.1 µM
PC-3 prostate
  TGI: 38.1 µM
NCI-H226 lung
  TGI: > 100 µM
OVCAR-3 ovarian
  TGI: 20.3 µM
EKVX NSCLC
  TGI: > 86.2 µM
NCI-H460 lung
  TGI: > 100 µM
UACC-62 melanoma
  TGI: 35 µM
SW-620 colon
  TGI: > 57.4 µM
UO-31 renal
  TGI: 32.3 µM
UACC-257 melanoma
  TGI: 31.8 µM
MOLT-4 leukemia
  TGI: 6.62 µM
LOX IMVI melanoma
  TGI: 26.9 µM
A549 NSCLC
  TGI: > 100 µM
786-0 renal
  TGI: 8.48 µM
M14 melanoma
  TGI: 31.5 µM
